Experimental data: US20260022142A1, “MACROCYCLIC IMMUNOMODULATORS” (Bristol-Myers Squibb Company, priority 2022, published 2026)
Bridge positions count the residues as written; N and C are the ends. Square brackets hold non-standard residues; d marks the D form. Peptide text beside a SMILES is read from it. * marks the point of attachment. ξ: configuration not given here. Bip = N[C@@H](Cc1ccc(-c2ccccc2)cc1)C(=O)O; Ala(2-furyl) = N[C@@H](Cc1ccco1)C(=O)O; Phe(3-Me) = Cc1cccc(C[C@H](N)C(=O)O)c1; Ala(4-THP) = N[C@@H](CC1CCOCC1)C(=O)O; Cha = N[C@@H](CC1CCCCC1)C(=O)O; Cit = NC(=O)NCCC[C@H](N)C(=O)O; Thr(3ξ) = CC(O)[C@H](N)C(=O)O; Ala(CN) = N#CC[C@H](N)C(=O)O; dDab = NCC[C@@H](N)C(=O)O; Carboxymethyl = O=C(O)C*; Orn = NCCC[C@H](N)C(=O)O; Aun = NCCCCCCCCCCC(=O)O; Dab = NCC[C@H](N)C(=O)O

Target: T1, PD-1/PD-L1 interaction (PE-labeled human PD-L1-Ig binding to Jurkat cell line over-expressing human PD-1) (Homo sapiens, UniProt Q15116)
T1 construct: expressed in transfected cells; host or cells: Jurkat
Assay: Jurkat-PD-1 Cell Binding High-Content Screening Assay (CBA)
Assay type: cell-based
Details: Jurkat cell line over-expressing human PD-1; PE-labeled PD-L1-Ig 20 nM final; read-out: Jurkat hPD1-PDL1 IC50
How it was run: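 Human PD-L1-Ig carrying a covalent PE label on its Ig tag serves as the probe, applied at 20 nM final to compound-treated (2 h, 37° C) Jurkat-hPD-1 cells in medium with 10% fetal calf serum. After one hour, fixation and nuclear staining precede high-content image analysis.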

T1 sequence (Q15116 25-288): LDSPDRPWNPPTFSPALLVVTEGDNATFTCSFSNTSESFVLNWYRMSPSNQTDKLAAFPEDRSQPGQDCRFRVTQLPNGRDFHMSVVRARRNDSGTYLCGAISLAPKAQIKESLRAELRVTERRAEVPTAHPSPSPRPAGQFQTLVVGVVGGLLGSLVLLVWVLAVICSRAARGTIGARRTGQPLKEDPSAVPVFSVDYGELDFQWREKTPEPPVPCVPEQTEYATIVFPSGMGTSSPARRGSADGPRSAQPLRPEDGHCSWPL

SMILES	IC50 [nM]
CC(C)C[C@H]1NC(=O)[C@H](CCCN)NC(=O)[C@H](Cc2ccc(O)cc2)NC(=O)[C@H](Cc2ccc(-c3ccccc3)cc2)NC(=O)[C@H](C(C)C)NC(=O)[C@H](Cc2c[nH]c3ccccc23)NC(=O)[C@H](CC(=O)O)NC(=O)[C@H](Cc2ccc(OCC(=O)O)cc2)NC(=O)[C@H](CC(N)=O)NC(=O)CSC[C@@H](C(=O)N[C@@H](CCN)C(=O)NCCCCCCCCCCC(=O)O)NC(=O)[C@H](C(C)O)NC(=O)[C@H](C(C)C)NC(=O)[C@H](CC2CCCCC2)NC(=O)[C@H](CCN)NC1=O (stereo partly drawn) [Compound 3421] ({CH2CO}-NY(Carboxymethyl)DWV[Bip]Y[Orn][dL][Dab][Cha]V[Thr(3ξ)]C[Dab][Aun]-OH; thioether N-14)	33.6
CC(C)C[C@H]1NC(=O)[C@H](CCCN)NC(=O)[C@H](Cc2ccc(O)cc2)NC(=O)[C@H](Cc2ccc(-c3ccccc3)cc2)NC(=O)[C@H](C(C)C)NC(=O)[C@H](Cc2c[nH]c3ccccc23)NC(=O)[C@H](CC(=O)O)NC(=O)[C@H](Cc2ccc(OCC(=O)O)cc2)NC(=O)[C@H](C(C)O)NC(=O)CSC[C@@H](C(=O)N[C@H](CCN)C(=O)NCCCCCCCCCCC(=O)O)NC(=O)[C@H](Cc2ccco2)NC(=O)[C@H](C(C)C)NC(=O)[C@H](CC2CCCCC2)NC(=O)[C@H](CCN)NC1=O (stereo partly drawn) [Compound 3422] ({CH2CO}-[Thr(3ξ)]Y(Carboxymethyl)DWV[Bip]Y[Orn][dL][Dab][Cha]V[Ala(2-furyl)]C[dDab][Aun]-OH; thioether N-14)	78.2
CC(C)C[C@H]1NC(=O)[C@H](CCCN)NC(=O)[C@H](Cc2ccc(O)cc2)NC(=O)[C@H](Cc2ccc(-c3ccccc3)cc2)NC(=O)[C@H](C(C)C)NC(=O)[C@H](Cc2c[nH]c3ccccc23)NC(=O)[C@H](CC(=O)O)NC(=O)[C@H](Cc2ccc(OCC(=O)O)cc2)NC(=O)[C@H](C(C)O)NC(=O)CSC[C@@H](C(=O)N[C@@H](CCN)C(=O)NCCCCCCCCCCC(=O)O)NC(=O)[C@H](CC2CCOCC2)NC(=O)[C@H](C(C)C)NC(=O)[C@H](CC2CCCCC2)NC(=O)[C@H](CCN)NC1=O (stereo partly drawn) [Compound 3424] ({CH2CO}-[Thr(3ξ)]Y(Carboxymethyl)DWV[Bip]Y[Orn][dL][Dab][Cha]V[Ala(4-THP)]C[Dab][Aun]-OH; thioether N-14)	133
CC(C)C[C@H]1NC(=O)[C@H](CCCN)NC(=O)[C@H](Cc2ccc(O)cc2)NC(=O)[C@H](Cc2ccc(-c3ccccc3)cc2)NC(=O)[C@H](C(C)C)NC(=O)[C@H](Cc2c[nH]c3ccccc23)NC(=O)[C@H](CC(=O)O)NC(=O)[C@H](Cc2ccc(OCC(=O)O)cc2)NC(=O)[C@H](CC(N)=O)NC(=O)CSC[C@@H](C(=O)N[C@@H](CCN)C(=O)NCCCCCCCCCCC(=O)O)NC(=O)[C@H](CC#N)NC(=O)[C@H](C(C)C)NC(=O)[C@H](CC2CCCCC2)NC(=O)[C@H](CCN)NC1=O [Compound 3425] ({CH2CO}-NY(Carboxymethyl)DWV[Bip]Y[Orn][dL][Dab][Cha]V[Ala(CN)]C[Dab][Aun]-OH; thioether N-14)	54.8
Cc1cccc(C[C@@H]2NC(=O)[C@H](CC(=O)O)NC(=O)[C@H](Cc3ccc(OCC(=O)O)cc3)NC(=O)[C@H](C(C)O)NC(=O)CSC[C@@H](C(=O)N[C@@H](CC(N)=O)C(=O)NCCCCCCCCCCC(=O)O)NC(=O)[C@H](CCCNC(N)=O)NC(=O)[C@H](C(C)C)NC(=O)[C@H](CC3CCCCC3)NC(=O)[C@H](CCN)NC(=O)[C@@H](CC(C)C)NC(=O)[C@H](CCCN)NC(=O)[C@H](Cc3ccc(O)cc3)NC(=O)[C@H](Cc3ccc(-c4ccccc4)cc3)NC(=O)[C@H](C(C)C)NC2=O)c1 (stereo partly drawn) [Compound 3426] ({CH2CO}-[Thr(3ξ)]Y(Carboxymethyl)D[Phe(3-Me)]V[Bip]Y[Orn][dL][Dab][Cha]V[Cit]CN[Aun]-OH; thioether N-14)	10.7
Cc1cccc(C[C@@H]2NC(=O)[C@H](CC(=O)O)NC(=O)[C@H](Cc3ccc(OCC(=O)O)cc3)NC(=O)[C@H](C(C)O)NC(=O)CSC[C@@H](C(=O)N[C@@H](CC(N)=O)C(=O)NCCCCCCCCCCC(=O)O)NC(=O)[C@H](C(C)O)NC(=O)[C@H](C(C)C)NC(=O)[C@H](CC3CCCCC3)NC(=O)[C@H](CCN)NC(=O)[C@@H](CC(C)C)NC(=O)[C@H](CCCN)NC(=O)[C@H](Cc3ccc(O)cc3)NC(=O)[C@H](Cc3ccc(-c4ccccc4)cc3)NC(=O)[C@H](C(C)C)NC2=O)c1 (stereo partly drawn) [Compound 3427] ({CH2CO}-[Thr(3ξ)]Y(Carboxymethyl)D[Phe(3-Me)]V[Bip]Y[Orn][dL][Dab][Cha]V[Thr(3ξ)]CN[Aun]-OH; thioether N-14)	16.8
Cc1cccc(C[C@@H]2NC(=O)[C@H](CC(=O)O)NC(=O)[C@H](Cc3ccc(OCC(=O)O)cc3)NC(=O)[C@H](C(C)O)NC(=O)CSC[C@@H](C(=O)N[C@H](CC(N)=O)C(=O)NCCCCCCCCCCC(=O)O)NC(=O)[C@H](CCC(N)=O)NC(=O)[C@H](C(C)C)NC(=O)[C@H](CC3CCCCC3)NC(=O)[C@H](CCN)NC(=O)[C@@H](CC(C)C)NC(=O)[C@H](CCCN)NC(=O)[C@H](Cc3ccc(O)cc3)NC(=O)[C@H](Cc3ccc(-c4ccccc4)cc3)NC(=O)[C@H](C(C)C)NC2=O)c1 (stereo partly drawn) [Compound 3428] ({CH2CO}-[Thr(3ξ)]Y(Carboxymethyl)D[Phe(3-Me)]V[Bip]Y[Orn][dL][Dab][Cha]VQC[dN][Aun]-OH; thioether N-14)	9.8
CC(C)C[C@H]1NC(=O)[C@H](CCCN)NC(=O)[C@H](Cc2ccc(O)cc2)NC(=O)[C@H](Cc2ccc(-c3ccccc3)cc2)NC(=O)[C@H](Cc2ccc(O)cc2)NC(=O)[C@H](Cc2c[nH]c3ccccc23)NC(=O)[C@H](CC(=O)O)NC(=O)[C@H](Cc2ccc(OCC(=O)O)cc2)NC(=O)[C@H](C(C)O)NC(=O)CSC[C@@H](C(=O)N[C@H](CC(N)=O)C(=O)NCCCCCCCCCCC(=O)O)NC(=O)[C@H](C(C)O)NC(=O)[C@H](C(C)C)NC(=O)[C@H](CC2CCCCC2)NC(=O)[C@H](CCN)NC1=O (stereo partly drawn) [Compound 3429] ({CH2CO}-[Thr(3ξ)]Y(Carboxymethyl)DWY[Bip]Y[Orn][dL][Dab][Cha]V[Thr(3ξ)]C[dN][Aun]-OH; thioether N-14)	41.5
Cc1cccc(C[C@@H]2NC(=O)[C@H](CC(=O)O)NC(=O)[C@H](Cc3ccc(OCC(=O)O)cc3)NC(=O)[C@H](C(C)O)NC(=O)CSC[C@@H](C(=O)N[C@H](CC(N)=O)C(=O)NCCCCCCCCCCC(=O)O)NC(=O)[C@H](C(C)O)NC(=O)[C@H](C(C)C)NC(=O)[C@H](CC3CCCCC3)NC(=O)[C@H](CCN)NC(=O)[C@@H](CC(C)C)NC(=O)[C@H](CCCN)NC(=O)[C@H](CCC(N)=O)NC(=O)[C@H](Cc3ccc(-c4ccccc4)cc3)NC(=O)[C@H](C(C)C)NC2=O)c1 (stereo partly drawn) [Compound 3430] ({CH2CO}-[Thr(3ξ)]Y(Carboxymethyl)D[Phe(3-Me)]V[Bip]Q[Orn][dL][Dab][Cha]V[Thr(3ξ)]C[dN][Aun]-OH; thioether N-14)	7.6
CC(=O)NCCCC[C@@H]1NC(=O)[C@H](Cc2ccc(-c3ccccc3)cc2)NC(=O)[C@H](C(C)C)NC(=O)[C@H](Cc2cccc(C)c2)NC(=O)[C@H](CC(=O)O)NC(=O)[C@H](Cc2ccc(OCC(=O)O)cc2)NC(=O)[C@H](C(C)O)NC(=O)CSC[C@@H](C(=O)N[C@H](CC(N)=O)C(=O)NCCCCCCCCCCC(=O)O)NC(=O)[C@H](C(C)O)NC(=O)[C@H](C(C)C)NC(=O)[C@H](CC2CCCCC2)NC(=O)[C@H](CCN)NC(=O)[C@@H](CC(C)C)NC(=O)[C@H](CCCN)NC1=O (stereo partly drawn) [Compound 3431] ({CH2CO}-[Thr(3ξ)]Y(Carboxymethyl)D[Phe(3-Me)]V[Bip]K(Ac)[Orn][dL][Dab][Cha]V[Thr(3ξ)]C[dN][Aun]-OH; thioether N-14)	4.9
Cc1cccc(C[C@@H]2NC(=O)[C@H](CC(=O)O)NC(=O)[C@H](Cc3ccc(OCC(=O)O)cc3)NC(=O)[C@H](C(C)O)NC(=O)CSC[C@@H](C(=O)N[C@H](CC(N)=O)C(=O)NCCCCCCCCCCC(=O)O)NC(=O)[C@H](CO)NC(=O)[C@H](C(C)C)NC(=O)[C@H](CC3CCCCC3)NC(=O)[C@H](CCN)NC(=O)[C@@H](CC(C)C)NC(=O)[C@H](CCCN)NC(=O)[C@H](Cc3ccc(O)cc3)NC(=O)[C@H](Cc3ccc(-c4ccccc4)cc3)NC(=O)[C@H](C(C)C)NC2=O)c1 (stereo partly drawn) [Compound 3432] ({CH2CO}-[Thr(3ξ)]Y(Carboxymethyl)D[Phe(3-Me)]V[Bip]Y[Orn][dL][Dab][Cha]VSC[dN][Aun]-OH; thioether N-14)	11.4
CC(C)C[C@H]1NC(=O)[C@H](CCCN)NC(=O)[C@H](Cc2ccc(O)cc2)NC(=O)[C@H](Cc2ccc(-c3ccccc3)cc2)NC(=O)[C@H](Cc2ccc(O)cc2)NC(=O)[C@H](Cc2c[nH]c3ccccc23)NC(=O)[C@H](CC(=O)O)NC(=O)[C@H](Cc2ccc(OCC(=O)O)cc2)NC(=O)[C@H](C(C)O)NC(=O)CSC[C@@H](C(=O)N[C@H](CC(N)=O)C(=O)NCCCCCCCCCCC(=O)O)NC(=O)[C@H](CCC(N)=O)NC(=O)[C@H](C(C)C)NC(=O)[C@H](CC2CCCCC2)NC(=O)[C@H](CCN)NC1=O (stereo partly drawn) [Compound 3433] ({CH2CO}-[Thr(3ξ)]Y(Carboxymethyl)DWY[Bip]Y[Orn][dL][Dab][Cha]VQC[dN][Aun]-OH; thioether N-14)	40.6
Cc1cccc(C[C@@H]2NC(=O)[C@H](CC(=O)O)NC(=O)[C@H](Cc3ccc(OCC(=O)O)cc3)NC(=O)[C@H](CCCNC(=N)N)NC(=O)CSC[C@@H](C(=O)N[C@H](CC(N)=O)C(=O)NCCCCCCCCCCC(=O)O)NC(=O)[C@H](CCC(N)=O)NC(=O)[C@H](C(C)C)NC(=O)[C@H](CC3CCCCC3)NC(=O)[C@H](CCN)NC(=O)[C@@H](CC(C)C)NC(=O)[C@H](CCCN)NC(=O)[C@H](CCCNC(N)=O)NC(=O)[C@H](Cc3ccc(-c4ccccc4)cc3)NC(=O)[C@H](C(C)C)NC2=O)c1 [Compound 3434] ({CH2CO}-RY(Carboxymethyl)D[Phe(3-Me)]V[Bip][Cit][Orn][dL][Dab][Cha]VQC[dN][Aun]-OH; thioether N-14)	10.5
